From patent publication US8993527B2, “Methods, compositions, and formulations for preventing or reducing adverse effects in a patient” (Pericor Therapeutics, Inc., priority 2005, dated 2015)
Structures can show the parent of a compound that is named as a salt.

Legend:
[1] = target: T1, NBTI-specific adenosine transport site (UniProt O54698); experiment: [3H]-NBTI binding assay; settings: read-out: ED50 (50% displacement of bound [3H]-NBTI); 0.5 mg neuronal membrane protein, 0.5 nM [3H]-NBTI, 30 minutes
T1 sequence (O54698 1-457): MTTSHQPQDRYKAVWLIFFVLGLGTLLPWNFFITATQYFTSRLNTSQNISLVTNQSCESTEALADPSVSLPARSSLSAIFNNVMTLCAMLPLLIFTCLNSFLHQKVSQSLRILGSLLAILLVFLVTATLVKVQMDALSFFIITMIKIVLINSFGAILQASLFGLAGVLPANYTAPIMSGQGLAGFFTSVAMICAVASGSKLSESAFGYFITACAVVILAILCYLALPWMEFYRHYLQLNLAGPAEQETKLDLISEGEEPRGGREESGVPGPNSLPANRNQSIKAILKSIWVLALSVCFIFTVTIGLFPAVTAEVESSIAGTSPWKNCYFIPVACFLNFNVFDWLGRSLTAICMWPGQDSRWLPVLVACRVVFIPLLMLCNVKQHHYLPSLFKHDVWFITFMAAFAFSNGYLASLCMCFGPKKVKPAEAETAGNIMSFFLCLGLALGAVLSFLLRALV
Protocol: Increasing concentrations of the test compounds were incubated for 30 minutes with 0.5 mg neuronal membrane protein together with 0.5 nM [^3 H]-NBTI in a Tris buffer (pH 7.4) at room temperature. The assays were quenched and membranes collected by rapid filtration. Filters were then solubilized and radioactivity determined by scintillation counting.

[2] = test system: platelet aggregation in human whole blood; experiment: Inhibition of platelet aggregation in human whole blood; format: cell-based; settings: 10 minutes at 37° C., 10 µM adenosine added, ADP (6-25 μM)
Protocol: Whole blood was drawn from healthy donors and collected in 0.1 vol. of sodium citrate to prevent coagulation. Platelet aggregation was measured by the impedance technique using a Whole Blood Aggregometer. The test compounds were incubated in whole blood for 10 minutes at 37° C. and 10 µM adenosine was added 5 minutes before eliciting aggregation. Aggregation was induced by addition of ADP (6-25 μM) at the minimum concentration inducing full aggregation in untreated controls.

[3] = test system: longitudinal muscle from the guinea pig ileum; experiment: Inhibition of stimulated contraction in isolated ileum; settings: electrically stimulated guinea pig ileum muscle
Description: These are detailed in Table II.

[4] = test system: coronary endothelial cells; experiment: Inhibition of adenosine utilization in cell culture; format: cell-based; settings: 1 μM [3H] adenosine, 15 minutes; for inhibition at 5 µM / inhibition at 50 µM: Endothelial cell
Protocol: In this assay, endothelial cells were incubated with 5 μM or 50 μM of the test compound together with 1 μM [^3H] adenosine for 15 minutes. Inhibition of adenosine utilization was determined by measuring the concentration of extracellular adenosine by scintillation counting following separation by thin layer chromatography (TLC).

Row | Molecule | EC50 [1] | inhibition at 5 µM ([4]; 5 μM) | inhibition at 50 µM ([4]; 50 μM) | other results
1 | Nc1c(C(=O)NCCc2ccc([N+](=O)[O-])cc2)ncn1C1OC(CO)C(O)C1O [Compound No. 59 (1-506), 5-Amino-1-β-D-ribofuranosyl-imidazole-4-N→2-(4-nitrophenyl)ethyl carboxamide] | 2 µM | – | – | IC50 ([2]; Homo sapiens, Platelet, 10 min): 70 µM
2 | Nc1c(C(=O)NCc2ccc(Cl)cc2Cl)ncn1C1OC(CO)C(O)C1O [Compound No. 25 (1-360), 5-amino-1-β-D-ribofuranosylimidazole-4-N-[(2,4-dichlorophenyl)methyl]carboxamide] | 72 µM | 21 ± 1% | 56 ± 2% | IC50 ([3]; Cavia porcellus): 20 µM
3 | CN(C)c1ccc(CNC(=O)c2ncn([C@@H]3O[C@H](CO)[C@@H](O)[C@H]3O)c2N)cc1 [41 (1-396), 5-Amino-1-β-D-ribofuranosylimidazole-4-N(4-dimethylaminobenzyl)-carboxamide hydrochloride] | – | – | – | IC50 [3]: 100 µM
4 | Nc1c(C(=O)NCc2cccc([N+](=O)[O-])c2)ncn1C1OC(CO)C(O)C1O [Compound No. 28 (1-348), 5-amino-1-β-D-ribofuranosylimidazole-4-N-[(3-nitrophenyl)methyl]carboxamide] | 15 µM | 17 ± 3% | 47 ± 2% | IC50 ([2]; Homo sapiens, Platelet, 10 min): 180 µM
5 | Nc1c(C(=O)NCc2ccc([N+](=O)[O-])cc2)ncn1C1OC(CI)C(O)C1O [46 (1-445), 5-Amino-1-(5-iodo-5-deoxy-β-D-ribofuranosyl)imidazole-4-N-[(4-nitrophenyl)methyl]carboxamide] | 8 µM | 19 ± 4% | 30 ± 9% | –
6 | Nc1c(C(=O)N2CCc3ccccc32)ncn1C1OC(CO)C(O)C1O [Compound No. 48 (1-452), 5-Amino-1-β-D-ribofuranosyl-imidazole-4-N-indolinylcarboxamide] | 22 µM | 23 ± 3% | 25 ± 2% | –
7 | Nc1c(C(=O)NCc2cccc(Cl)c2)ncn1C1OC(CO)C(O)C1O [Compound No. 35 (1-355), 5-amino-1-β-D-ribofuranosyl-imidazole-4-N[(3-chlorophenyl)methyl]carboxamide] | – | – | – | IC50 ([3]; Cavia porcellus): 60 µM
8 | Nc1c(C(=O)NC[C@H](O)c2ccc(O)c(O)c2)ncn1[C@@H]1O[C@H](CO)[C@@H](O)[C@H]1O [42 (1-431), (R)-5-Amino-1-β-D-ribofuranosylimidazole-4-N-[2-hydroxy-2-(3,4-dihydroxyphenyl)ethyl]carboxamide] | – | – | – | IC50 [3]: 6 µM
9 | Cc1ccc(CNC(=O)c2ncn(C3OC(CO)C(O)C3O)c2N)cc1 [Compound No. 30 (1-388), 5-amino-1-β-D-ribofuranosylimidazole-4-N-[(4-methylphenyl)methyl]carboxamide] | 225 µM | 21 ± 1% | 49 ± 4% | IC50 ([3]; Cavia porcellus): 20 µM
10 | Nc1c(C(=O)NCc2ccc(Cl)cc2)ncn1C1OC(CO)C(O)C1O [Compound No. 29 (1-349), 5-amino-1-β-D-ribofuranosylimidazole-4-N-[(4-Chlorophenyl)methyl]carboxamide] | 100 µM | 41 ± 11% | 67 ± 8% | IC50 ([3]; Cavia porcellus): 60 µM; IC50 ([2]; Homo sapiens, Platelet, 10 min): 90 µM
11 | NC(=O)c1ncn([C@@H]2O[C@H](CCl)[C@@H](O)[C@H]2O)c1N [Compound No. 26 (1-332), 5-amino-1-(5-chloro-5-deoxy-β-D-ribofuranosyl)imidazole-4-carboxamide] | – | – | – | IC50 ([3]; Cavia porcellus): 200 µM
12 | 5-Amino-4-[1-[4-(4-nitrophenyl)]piperazinocarbamoyl]-1-1-β-D-ribofurano sylimidazole [Compound No. 60 (1-508)] | 17 µM | – | – | –
13 | Nc1c(C(=O)NCCCc2ccc([N+](=O)[O-])cc2)ncn1[C@@H]1O[C@H](CO)[C@@H](O)[C@H]1O [Compound No. 73 (1-566)] | – | – | – | Inhibition of Adenosine Utilization (%) ([4]; 5 μM): 16 ± 0%; Inhibition of Adenosine Utilization (%) ([4]; 50 μM): 33 ± 9%
14 | Nc1c(C(=O)Nc2ccc([N+](=O)[O-])cc2)ncn1C1OC(CO)C(O)C1O [Compound No. 58 (1-489), 5-Amino-1-β-D-ribofuranosylimidazole-4-N-(4-nitrophenyl)carboxamide] | 80 µM | – | – | –
15 | [N-]=[N+]=NCC1OC(n2cnc(C(=O)NCc3ccc(Cl)cc3)c2N)C(O)C1O (stereo not shown) [Compound No. 52 (1-467)] | – | – | – | IC50 ([2]; Homo sapiens, Platelet, 10 min): 480 µM
16 | [N-]=[N+]=NC[C@H]1O[C@@H](n2cnc(C(=O)NCc3ccc([N+](=O)[O-])cc3)c2N)[C@H](O)[C@@H]1O [Compound No. 71 (1-562)] | – | – | – | Inhibition of Adenosine Utilization (%) ([4]; 5 μM): 10 ± 3%; Inhibition of Adenosine Utilization (%) ([4]; 50 μM): 31 ± 11%; IC50 [2]: 40 µM
17 | Nc1c(C(=O)NCc2cccc(Cl)c2)ncn1[C@H]1O[C@H](CO)[C@@H](O)[C@H]1O [Compound No. 24 (1-354), 5-Amino-1-α-D-ribofuranosylimidazole-4-N-[(3-chlorophenyl)methyl]carboxamide] | – | – | – | IC50 [3]: 400 µM
18 | C[C@H]1O[C@@H](n2cnc(C(=O)NCc3ccc(Cl)cc3)c2N)[C@H](O)[C@@H]1O [Compound No. 61 (1-509), 5-Amino-1-(5-deoxy-β-D-ribofuranosyl)imidazole-4N-[(4-chlorophenyl)methyl]carboxamide] | 32 µM | – | – | Inhibition of Adenosine Utilization (%) ([4]; 5 μM): 37 ± 28%; Inhibition of Adenosine Utilization (%) ([4]; 50 μM): 72 ± 5%; IC50 [2]: 171 µM
19 | Nc1c(C(=O)NCc2cccc(I)c2)ncn1C1OC(CO)C(O)C1O [Compound No. 44 (1-434), 5-Amino 1-β-D-ribofuranosyl-imidazole-4-N-[(3-iodophenyl)methyl]carboxamide] | – | – | – | IC50 ([3]; Cavia porcellus): 20 µM
20 | Nc1c(C(=O)NC2CC3CCC2C3)ncn1C1OC(CO)C(O)C1O [Compound No. 45 (1-438), 5-Amino-1-β-D-ribofuranosylimidazole-4-N-(2-endo-norbornyl)carboxamide] | 90 µM | – | – | IC50 ([3]; Cavia porcellus): 100 µM
21 | NC(=O)c1nc(Sc2ccccc2)n([C@@H]2O[C@H](CO)[C@@H](O)[C@H]2O)c1N [Compound No. 43 (1-432), 5-Amino-2-thiophenyl-1-β-D-ribofuranosylimidazole-4-carboxamide] | 71 µM | – | – | IC50 [3]: 200 µM; IC50 [2]: 620 µM
22 | CC(NC(=O)c1ncn(C2OC(CO)C(O)C2O)c1N)c1ccc([N+](=O)[O-])cc1 [49 (1-453), (R)-5-Amino-1-β-D-ribofuranosylimidazole 4-N-[1-4-nitrophenyl)ethyl]carboxamide] | 7 µM | 30 ± 4% | 33 ± 8% | –
23 | Nc1c(C(=O)NCc2ccc(S(N)(=O)=O)cc2)ncn1[C@@H]1O[C@H](CO)[C@@H](O)[C@H]1O [Compound No. 75 (1-577), 5-Amino-1-β-D-ribofuranosylimidazole-4-N-[(4-sulfamoylphenyl)methyl]carboxamide] | – | – | – | Inhibition of Adenosine Utilization (%) ([4]; 5 μM): 8 ± 0%; Inhibition of Adenosine Utilization (%) ([4]; 50 μM): 30 ± 3%
24 | CSC[C@H]1O[C@@H](n2cnc(C(N)=O)c2N)[C@H](O)[C@@H]1O [Compound No. 54 (1-483), 5-Amino-1-(5-deoxy-5-methylthio-β-D-ribofuranosyl)imidazole-4-carboxamide] | 28 µM | – | – | –
25 | NC[C@H]1O[C@@H](n2cnc(C(=O)NCc3ccc([N+](=O)[O-])cc3)c2N)[C@H](O)[C@@H]1O [Compound No. 72 (1-563)] | – | – | – | IC50 [2]: 300 µM
26 | CC(NC(=O)c1ncn(C2OC(CO)C(O)C2O)c1N)c1ccc([N+](=O)[O-])cc1 [50 (1-459), (S)-5-Amino-1-β-D-ribofuranosylimidazole-4-N-[(4-nitrophenyl)ethyl]carboxamide] | 28 µM | – | – | –
27 | COc1ccc(CNC(=O)c2ncn(C3OC(CO)C(O)C3O)c2N)cc1 [Compound No. 39 (1-390), 5-Amino-1-β-D-ribofuranosyl-imidazole-4-N-[p-methoxybenzyl]carboxamide] | 600 µM | 7 ± 4% | 29 ± 1% | IC50 ([3]; Cavia porcellus): 500 µM
28 | Nc1c(C(=O)NCc2ccc(Br)cc2)ncn1C1OC(CO)C(O)C1O [Compound No. 56 (1-487), 5-Amino 1-β-D-ribofuranosyl-imidazole-4-N-[(4-bromophenyl)methyl]carboxamide] | 32 µM | 55 ± 7% | 65 ± 9% | IC50 ([2]; Homo sapiens, Platelet, 10 min): 75 µM
